Reference: US10265298B2, “Method of increasing the bioavailability of silybin” (Macau University of Science and Technology, priority 2017, dated 2019)

Tests used:
[1] = in vivo, po; for Cmax of free silybin / mean Cmax of total silybin (parent plus sulfate and glucuronide conjugates): rat
Experimental: The rats were randomly divided into three groups with six rats in each group. The oral administration dosages of silybin were 10 and 50 mg/10 ml/kg body weight without or with baicalein/tangeretin at the same dosage. Before experimentation, the animals were fasted for 24 hours with water ad libitum, and maintained at a temperature of 21° C. with 70% relative humidity and a 12 hour light/dark cycle. After oral administration, tail vein blood samples were collected (0.1 ml) into heparinized 0.65 ml micro-centrifuge tubes at the following time intervals: 0, 15, 30, 45, 60, 90, 120, 240, 360, 480, and 720 minutes. The blood samples then were immediately centrifuged at 4,000 rotations per minute (rpm) for 15 minutes at 4 degrees Celsius (° C.), and the resulting plasma was collected and stored at −80° C. until analysis.
To estimate the concentration of total glucuronide and sulfate conjugates of silybin in bio-samples including plasma, cell, and media, enzymatic hydrolysis with […] (8000 U/ml) and sulfatase (80 units per milliliter (U/ml)) was performed with 10 microliter (μl) aliquot of samples. The reactions were terminated by the addition of 40 μl of ice-cold acetonitrile containing 1% glacial acetic acid and internal standard NG (25 ng/ml). After centrifugation at 13,500 rotations per minute (rpm) for 15 minutes at 4° C., the supernatants were evaporated to dryness by nitrogen evaporator, and the residue was reconstituted with 60 μl of 30% methanol in water containing 1% ascorbic acid. An aliquot of 10 μl of the final solution was injected into LC-MS/MS for analysis. The completion of de-conjugation reaction was monitored by mass spectrometry. In parallel, 10 μl aliquots of samples without enzymes were treated with 40 μl of ice-cold acetonitrile containing 1% glacial acetic acid and naringenin (NG) (25 nanogram per milliliter (ng/ml)) to determine the concentration of free silybin. The total concentrations of glucuronides and sulfates in samples were estimated from the difference between the amount of silybin released by incubation with both glucuronidase and sulfatase and the amount of free silybin without enzymes incubation.
The analysis of silybin and total concentrations of glucuronides and sulfates was performed on an Agilent HP 1100 LC-MS system (Agilent, CA). A Waters ACQUITY UPLC® BEH C18 Column (1.7 μm, 2.1×50 mm, Waters Corp., Ireland) was used for detection with a C18 Security Guard cartridge (4×2.0 mm i.d., Phenomenex, Torrance, Calif.). Silybin A and silybin B were well separated using optimized gradient elution with methanol (mobile phase B) and 0.1% formic acid in water (mobile phase A) as mobile phase at a flow rate of 0.4 ml/min with a run time of 10 minutes. The gradient employed was as follows (time: mobile phase B percentage): 0 min: 25%, 6 minutes: 40%, 6.5 minutes: 25%.
Pharmacokinetic parameters including half-life (T1/2), volume of distribution (Vd), oral clearance (CL/F), and area under the concentration-time curve (AUC) were calculated using the software package PK Solutions 2.0.2 (SUMMIT Co., Ashland, Ohio, USA) with non-compartment analysis. One-way analysis of variance (ANOVA) was used when multiple groups were compared and the Bonferroni post hoc correction was used to accommodate multiple testing. The two-sided unpaired Student's t-test was used when treatments or differences between two groups were compared. […] During all statistical analyses, differences in group sizes were considered in the calculations. Differences were considered statistically significant when P<0.05. All data is presented as geometric mean±S.D.

in vitro = in vitro ADME, rat; details: male, Sprague Dawley, rat
Experimental: Sandwich-cultured rat hepatocytes (SCHs) were established according to previously described methods with minor modifications. Primary rat hepatocytes were isolated from male Sprague Dawley® (SD) rats (220-270 g) using a collagenase perfusion as described previously and plated at a density of 7.4×10^5 cells/2 ml/well onto six-well BioCoat plates. Approximately 24 hours later, hepatocytes were overlaid with 2 ml of 0.25 mg/ml BD Matrigel basement membrane matrix in Dulbecco's modified Eagle medium (DMEM) containing 1% volume by volume percentage (v/v) insulin/transferrin/selenium culture supplement, […] dexamethasone, 2 mM L-glutamine, 1% (v/v) minimum essential medium nonessential amino acids, 1% penicillin-streptomycin. Hepatocytes were cultured for 4 days to allow extensive formation of canalicular networks between cells before experimentation and the medium was changed daily.
Sandwich-cultured hepatocytes (SCHs) were pre-incubated in 2 milliliters (ml) of warm Hank's Balanced Salt Solution (HBSS) with or without Ca^2+ at 37° C. for 15 minutes; the tight junctions of the bile canaliculi open temporally after exposure to HBSS without Ca^2+. Subsequently, cells were incubated at 37° C. for 20 minutes with 1.5 ml of standard HBSS containing silybin (10 μM), or MK 571 (50 μM) as a positive control, or baicalein (25, 15.8, 5, 1.58, 0.5, 0.16 μM), or tangeretin (25, 15.8, 5, 1.58, 0.5 μM). After 20 min, cells were washed three times with ice-cold standard HBSS. The cell samples were lysed by sonication in 1 ml of water for 5 seconds with the ultrasonic cell disruption system (SONICS & […], INC., Newtown, Conn., USA). Conjugated silybin and unconjugated (free) silybin were quantified by high-performance liquid chromatography-tandem mass spectrometry (HPLC-MS/MS). Transport function was normalized to the protein content of the hepatocytes which was evaluated by bicinchoninic acid (BCA) protein assay (Pierce Chemical, Rockford, Ill.). The biliary excretion index (BEI; %) and in vitro biliary clearance (Clbiliary; ml/min/kg) were calculated by using B-CLEAR technology (Qualyst, Inc., Research Triangle Park, N.C.) based on the following equations: […]

In the case of COc1cc([C@H]2Oc3cc([C@H]4Oc5cc(O)cc(O)c5C(=O)[C@@H]4O)ccc3O[C@@H]2CO)ccc1O [silybin A], the “fraction existing as conjugates in rat plasma” value [1] is reported as “about 97%”, the “Cmax of free silybin” value [1] is reported as 26 ± 13 ng/mL and the “mean Cmax of total silybin (parent plus sulfate and glucuronide conjugates)” value [1] is reported as 1109 ± 158 ng/mL.

For COc1cc([C@@H]2Oc3cc([C@H]4Oc5cc(O)cc(O)c5C(=O)[C@@H]4O)ccc3O[C@H]2CO)ccc1O [silybin B], the “fraction existing as conjugates in rat plasma” value [1] was ~99%, the “Cmax of free silybin” value [1] was 16 ± 5 ng/mL and the “mean Cmax of total silybin (parent plus sulfate and glucuronide conjugates)” value [1] was 2478 ± 284 ng/mL.

COc1ccc(-c2cc(=O)c3c(OC)c(OC)c(OC)c(OC)c3o2)cc1 [tangeretin] gave an inhibition at 20 min (in vitro) of ~90%.
